# Values of other authors as cited in patent US7368249B2, “Methods and compositions for evaluation and modulation of fertility” (The Curators of the University of Missouri, priority 2003, dated 2008).
# System: maturing reticulocytes
# Details: presence vs absence of ETYA
compound,measurement,value
"CCCCCC#CCC#CCC#CCC#CCCCC(=O)O [ETYA, 5,8,11,14-eicosatetraynoic acid]",mitochondrial degradation in maturing reticulocytes,delayed
